Reference: US20240140957A1, “BRIDGED COMPOUNDS AS KRAS G12D INHIBITOR AND DEGRADER AND THE USE THEREOF” (BeiGene Switzerland GmbH, priority 2021, published 2024)

Target: GDP-loaded KRAS G12D (Homo sapiens, UniProt P01116, G12D)
Experiment: KRAS G12D Probe Displacement Assay
Type: binding
Details: KRAS G12D 0.5 nM, biotinylated probe 2 4 nM; Table 6 letters; read-out: KRAS G12D Probe Displacement Assay IC50 (class)

Chain of GDP-loaded KRAS G12D (P01116 1-188 isoform P01116-2 G12D): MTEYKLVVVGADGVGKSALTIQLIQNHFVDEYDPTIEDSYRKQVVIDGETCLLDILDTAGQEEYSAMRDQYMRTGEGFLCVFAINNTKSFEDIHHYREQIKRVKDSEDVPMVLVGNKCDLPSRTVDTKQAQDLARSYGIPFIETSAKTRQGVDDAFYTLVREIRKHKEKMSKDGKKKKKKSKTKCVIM

Compound	IC50
Nc1nc2c(-c3c(C(F)(F)F)cc4c(N5CC6CCCC(C5)N6)nc(OC[C@@]56CCCN5C[C@H](F)C6)nc4c3F)ccc(F)c2s1 [Example E90, 4-(4-(3,9-diazabicyclo[3.3.1]nonan-3-yl)-8-fluoro-2-(((2R,7aS)-2-fluorotetrahydro-1H-pyrrolizin-7a(5H)-yl)methoxy)-6-(trifluoromethyl)quinazolin-7-yl)-7-fluorobenzo[d]thiazol-2-amine]	< 50 nM
Nc1nc2c(-c3c(C4CC4(F)F)cc4c(N5CC6CCC(C5)N6)nc(OC[C@@]56CCCN5C[C@H](F)C6)nc4c3F)ccc(F)c2s1 (stereo partly drawn) [Example E91, 4-(4-(3,8-diazabicyclo[3.2.1]octan-3-yl)-6-(2,2-difluorocyclopropyl)-8-fluoro-2-((2-fluorotetrahydro-1H-pyrrolizin-7a(5H)-yl)methoxy)quinazolin-7-yl)-7-fluorobenzo[d]thiazol-2-amine]	< 50 nM
Cc1cc(N)nc(-c2c(SC(F)(F)F)cc3c(N4CC5CCC(C4)N5)nc(OC[C@@]45CCCN4C[C@H](F)C5)nc3c2F)c1C(F)(F)F [Example E92, 6-(4-(3,8-diazabicyclo[3.2.1]octan-3-yl)-8-fluoro-2-(((2R,7aS)-2-fluorotetrahydro-1H-pyrrolizin-7a(5H)-yl)methoxy)-6-((trifluoromethyl)thio)quinazolin-7-yl)-4-methyl-5-(trifluoromethyl)pyridin-2-amine]	< 50 nM
Nc1nc2c(-c3c(SC(F)(F)F)cc4c(N5CC6CCC(C5)N6)nc(OC[C@@]56CCCN5C[C@H](F)C6)nc4c3F)ccc(F)c2s1 [Example E94, 4-(4-(3,8-diazabicyclo[3.2.1]octan-3-yl)-8-fluoro-2-(((2R,7aS)-2-fluorotetrahydro-1H-pyrrolizin-7a(5H)-yl)methoxy)-6-((trifluoromethyl)thio)quinazolin-7-yl)-7-fluorobenzo[d]thiazol-2-amine]	< 50 nM
Nc1nc2c(-c3c(C(F)(F)F)cc4c(N5[C@@H]6CC[C@H]5C(NCCC(F)F)C6)nc(OC[C@@]56CCCN5C[C@H](F)C6)nc4c3F)ccc(F)c2s1 (stereo partly drawn) [Example E95, 4-(4-((1S,4R)-2-((3,3-difluoropropyl)amino)-7-azabicyclo [2.2.1]heptan-7-yl)-8-fluoro-2-(((2R,7As)-2-fluorotetrahydro-1H-pyrrolizin-7a(5H)-yl)methoxy)-6-(trifluoromethyl)quinazolin-7-yl)-7-fluorobenzo[d]thiazol-2-amine]	< 50 nM
Cc1cc(N)nc(-c2c(Cl)cc3c(N4C5CCC4CNC5)nc(OC[C@@]45CCCN4C[C@H](F)C5)nc3c2F)c1C(F)(F)F [Example E96]	< 50 nM
COCCCNC1C[C@H]2CC[C@@H]1N2c1nc(OC[C@@]23CCCN2C[C@H](F)C3)nc2c(F)c(-c3ccc(F)c4sc(N)nc34)c(C(F)(F)F)cc12 (stereo partly drawn) [Example E97, 7-fluoro-4-(8-fluoro-2-(((2R,7aS)-2-fluorotetrahydro-1H-pyrrolizin-7a(5H)-yl)methoxy)-4-((1S,4R)-2-((3-methoxypropyl)amino)-7-azabicyclo [2.2.1]heptan-7-yl)-6-(trifluoromethyl)quinazolin-7-yl) benzo[d]thiazol-2-amine]	< 50 nM
Nc1nc2c(-c3c(C(F)(F)F)cc4c(N5C6CNCC5COC6)nc(OC[C@@]56CCCN5C[C@H](F)C6)nc4c3F)ccc(F)c2s1 [Example E98]	< 50 nM
CN(C)C(=O)CCNC1C[C@H]2CC[C@@H]1N2c1nc(OC[C@@]23CCCN2C[C@H](F)C3)nc2c(F)c(-c3ccc(F)c4sc(N)nc34)c(C(F)(F)F)cc12 (stereo partly drawn) [Example E99, 3-(((1S,4R)-7-(7-(2-amino-7-fluorobenzo[d]thiazol-4-yl)-8-fluoro-2-(((2R,7aS)-2-fluorotetrahydro-1H-pyrrolizin-7a(5H)-yl)methoxy)-6-(trifluoromethyl)quinazolin-4-yl)-7-azabicyclo [2.2.1]heptan-2-yl)amino)-N,N-dimethyl propanamide]	< 50 nM
